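In this assay, cells in 96-well plates receive the compound at five concentrations for 48 hours. Endpoints are linearly interpolated between the surrounding concentrations. Abbreviation: GI50, concentration required for 50% inhibition of growth.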 Active and inactive are the calls of the source. Rule as the data show it: active = GI50 up to about 1.1 µM and inactive = higher.
Experiments:
Test in all cases: NCI-60 cell line screen, 48 h
SF-539 = test system: SF-539
IGROV-1 = test system: IGROV-1
SR = test system: SR
NCI-H226 = test system: NCI-H226
OVCAR-3 = test system: OVCAR-3
PC-3 = test system: PC-3
SK-MEL-28 = test system: SK-MEL-28
SK-MEL-5 = test system: SK-MEL-5
EKVX = test system: EKVX
OVCAR-4 = test system: OVCAR-4
HCC 2998 = test system: HCC 2998
U-251 = test system: U-251
ACHN = test system: ACHN
NCI/ADR-RES = test system: NCI/ADR-RES
RPMI-8226 = test system: RPMI-8226
DU-145 = test system: DU-145
HT-29 = test system: HT-29
MDA-MB-435 = test system: MDA-MB-435
CCRF-CEM = test system: CCRF-CEM
MDA-N = test system: MDA-N

Measured: GI50

COC(=O)c1cc2c(cc1Cl)Sc1nnc(Nc3ccc(C)cc3)n1S2(=O)=O
inactive: SF-539 1.17 µM | IGROV-1 2.15 µM | SR 2.12 µM | NCI-H226 12.1 µM | OVCAR-3 2.19 µM | PC-3 4.85 µM | SK-MEL-28 9.33 µM | SK-MEL-5 13.8 µM | EKVX 12.9 µM | OVCAR-4 2.76 µM | HCC 2998 4.75 µM | U-251 3.87 µM | ACHN 3.48 µM | NCI/ADR-RES 11.1 µM | RPMI-8226 2.17 µM | DU-145 2.65 µM | HT-29 3.92 µM | MDA-MB-435 7.19 µM | CCRF-CEM 3.78 µM | MDA-N 6.44 µM

Cc1n[nH]c(=O)n1Nc1ccccc1
inactive: SF-539 > 100 µM | IGROV-1 > 100 µM | SR > 100 µM | NCI-H226 > 100 µM | OVCAR-3 > 100 µM | PC-3 > 100 µM | SK-MEL-28 > 100 µM | SK-MEL-5 > 100 µM | EKVX > 100 µM | OVCAR-4 > 100 µM | HCC 2998 > 100 µM | U-251 > 100 µM | ACHN > 100 µM | NCI/ADR-RES > 100 µM | RPMI-8226 > 100 µM | DU-145 > 100 µM | HT-29 > 100 µM | MDA-MB-435 > 100 µM | CCRF-CEM > 100 µM | MDA-N > 100 µM

COC(=O)CCC(=O)NC1=C(NCc2ccccc2)C(=O)c2ccccc2C1=O
inactive: SF-539 20.1 µM | IGROV-1 17.7 µM | SR 27.9 µM | NCI-H226 85.1 µM | OVCAR-3 3.95 µM | PC-3 25.2 µM | SK-MEL-28 88.3 µM | SK-MEL-5 12.1 µM | EKVX 32.9 µM | OVCAR-4 18.5 µM | HCC 2998 37.2 µM | U-251 28.9 µM | ACHN 27.4 µM | NCI/ADR-RES 29.3 µM | RPMI-8226 34 µM | DU-145 45.3 µM | HT-29 25.7 µM | MDA-MB-435 18.9 µM | CCRF-CEM 35.8 µM | MDA-N 16 µM

CC1=C(C(=O)OCCO[N+](=O)[O-])C(c2cccc([N+](=O)[O-])c2)C(C(=O)OC(C)C)=C(C)N1 (centres undefined)
inactive: SF-539 14.2 µM | IGROV-1 14 µM | SR 24.8 µM | NCI-H226 8.95 µM | OVCAR-3 10.4 µM | PC-3 4.25 µM | SK-MEL-28 14.3 µM | SK-MEL-5 12.8 µM | EKVX 16.8 µM | OVCAR-4 3.76 µM | HCC 2998 15.7 µM | U-251 14.9 µM | ACHN 14.2 µM | NCI/ADR-RES 10.5 µM | RPMI-8226 2.58 µM | DU-145 25.3 µM | HT-29 15.2 µM | MDA-MB-435 15.2 µM | CCRF-CEM 29.9 µM | MDA-N 14.9 µM

CC(/C=C/c1ccccc1)=N\NC(N)=S
inactive: SF-539 31.7 µM | IGROV-1 21 µM | SR 23.2 µM | NCI-H226 80 µM | OVCAR-3 24.5 µM | PC-3 90.8 µM | SK-MEL-28 > 100 µM | SK-MEL-5 38.5 µM | EKVX 17.7 µM | HCC 2998 21.6 µM | U-251 40.5 µM | ACHN 38 µM | NCI/ADR-RES 27.9 µM | RPMI-8226 33.7 µM | DU-145 34.4 µM | HT-29 56.6 µM | MDA-MB-435 28.1 µM | CCRF-CEM 49.7 µM | MDA-N 29.6 µM

C[C@H]1C2Cc3cc(N)ccc3[C@@]1(C)CCN2CCc1ccccc1
inactive: SF-539 45.2 µM | IGROV-1 41.9 µM | SR 19.3 µM | NCI-H226 58.7 µM | OVCAR-3 15.9 µM | PC-3 22.6 µM | SK-MEL-28 > 100 µM | SK-MEL-5 18.3 µM | EKVX 40.6 µM | OVCAR-4 48.2 µM | HCC 2998 9.08 µM | U-251 43.8 µM | ACHN 41.2 µM | NCI/ADR-RES 42.3 µM | RPMI-8226 33.6 µM | DU-145 > 100 µM | HT-29 6.49 µM | MDA-MB-435 41.9 µM | CCRF-CEM 33.2 µM | MDA-N 66.2 µM

Cc1ccnc2c1C(=O)C1=C(OC(C)(C)CC1O)C2=O (centres undefined)
inactive: SF-539 3.41 µM | IGROV-1 3.03 µM | SR 2.03 µM | NCI-H226 6.08 µM | OVCAR-3 2.67 µM | PC-3 2.91 µM | SK-MEL-28 2.05 µM | SK-MEL-5 1.17 µM | EKVX 5.21 µM | OVCAR-4 3.01 µM | HCC 2998 3.88 µM | U-251 3.34 µM | ACHN 5.82 µM | NCI/ADR-RES 2.78 µM | RPMI-8226 4.06 µM | DU-145 6.4 µM | HT-29 3.08 µM | MDA-MB-435 1.32 µM | CCRF-CEM 2.97 µM | MDA-N 1.45 µM

— ChEMBL document CHEMBL1201862, “PubChem BioAssay data set” (2004)
